Measurements from patent US12037324B2, “Biarylmethyl heterocycles” (Université de Montréal, priority 2016, dated 2024).

Experiments:
hAT1R [1] = molecular target: T1, hAT1R (Homo sapiens, UniProt P30556); assay: cell-based
T1 sequence (P30556 1-359): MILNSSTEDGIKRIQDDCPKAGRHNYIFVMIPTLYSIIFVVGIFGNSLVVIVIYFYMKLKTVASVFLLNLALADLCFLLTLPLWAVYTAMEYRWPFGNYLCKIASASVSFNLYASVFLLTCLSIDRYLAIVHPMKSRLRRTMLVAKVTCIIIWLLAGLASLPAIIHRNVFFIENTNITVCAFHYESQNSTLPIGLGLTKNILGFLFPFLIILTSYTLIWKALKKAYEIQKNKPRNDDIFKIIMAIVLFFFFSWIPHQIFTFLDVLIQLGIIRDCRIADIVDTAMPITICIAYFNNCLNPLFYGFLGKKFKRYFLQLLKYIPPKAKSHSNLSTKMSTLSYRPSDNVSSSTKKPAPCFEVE

AGTR1 [2] = molecular target: T2, AGTR1 (Homo sapiens, UniProt P30556); assay: DiscoveRx IP1 accumulation assay (HTRF), agonist mode, Pathunter CHO-K1 AGTR1 β-arrestin cell line; assay type: cell-based; conditions: for EC50: read-out: IP-1 EC50
T2 construct: host or cells: Pathunter CHO-K1 AGTR1 β-arrestin cell line (CHO-K1)
T2 sequence (P30556 1-359): T1 sequence (P30556 1-359)
Procedure, shortened: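 Agonist mode in CHO-K1 AGTR1 β-arrestin cells plated 14-16 h before; compounds at varying concentrations for 90 min at 37° C, IP1 accumulation read by HTRF (D2-conjugate and anti-IP1 cryptate, 20 min room temperature). EC50 from 4-parameter logistic fit; activity given as percentage of maximal AII effect.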

hAT1R [3] = molecular target: T1, hAT1R; assay: BRET β-arrestin2 biosensor assay, higher receptor expression (hAT1R 5 ng/well), HEK293 cells; assay type: cell-based; conditions: for EC50: High AT1R Expression
AGTR1 [4] = molecular target: T2, AGTR1; assay: DiscoveRx β-arrestin2 recruitment assay (enzyme complementation, Pathunter CHO-K1 AGTR1 β-arrestin cell line); assay type: cell-based; conditions: DiscoveRx β-arrestin2 recruitment; for DiscoveRx β-arrestin2 Ymax (%): maximal response
Procedure, shortened: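 CHO-K1 cells expressing AGTR1 with β-arrestin2 enzyme-complementation reporter, plated 14-16 h ahead in 1% serum medium, then exposed to compounds for 90 min at 37° C. Chemiluminescence read after 1 h detection. EC50 (agonist) or IC50 (antagonist) from 4-parameter logistic fit; activity as percentage of All maximal effect.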

hAT1R [5] = molecular target: T1, hAT1R; assay: cell-based; conditions: agonist mode; for EC50: read-out: BRET P63 EC50
[6] = Low AT1R Expression, read-out: BRET β-Arrestin2 Low AT1R Expression EC50
[7] = section of the 42nd table ending at r951, example numbering restarts after the DiscoveRx section, read-out: β-arrestin2 EC50

SMILES	BRET β-Arrestin2 Low AT1R Expression Ymax (%) (hAT1R [1]; Low AT1R Expression)	EC50 (hAT1R [1]; [6])	IP-1 Ymax (%) (AGTR1 [2])	EC50 (AGTR1 [2])	BRET β-Arrestin2 High AT1R Expression Ymax (%) (hAT1R [3])	EC50 (hAT1R [3])	EC50 (AGTR1 [4])	DiscoveRx β-arrestin2 Ymax (%) (AGTR1 [4])	EC50 (hAT1R [5])	BRET P63 Ymax (hAT1R [5])	EC50 (hAT1R [1]; [7])
CCc1nc2c(C)cc(C)nc2n1Cc1ccc(-c2cc(-n3cccn3)ccc2-c2nn[nH]n2)cc1 [Example 25]	10.1%	32.9 nM	6.7%	40.8 nM	74.5%	19.8 nM	15.9 nM	23.1%	> 100000 nM	–	–
CCc1nc2c(C)cc(C)nc2n1Cc1ccc(-c2cc(-c3ccccn3)ccc2-c2nn[nH]n2)cc1 [Example 30, 2-Ethyl-5,7-dimethyl-3-((5′-(pyridin-2-yl)-2′-(2H-tetrazol-5-yl)-[1,1′-biphenyl]-4-yl)methyl)-3H-imidazo[4,5-b]pyridine]	72.9%	14.5 nM	12.3%	15.9 nM	87.5%	5.6 nM	4.9 nM	48.0%	19.1 nM	23.5%	–
CCc1nc2c(C)cc(C)nc2n1Cc1ccc(-c2cc(-c3ccccc3)ccc2-c2noc(=O)[nH]2)cc1 [Example 32, 3-(4″-((2-ethyl-5,7-dimethyl-3H-imidazo[4,5-b]pyridin-3-yl)methyl)-[1,1′:3′,1″-terphenyl]-4′-yl)-1,2,4-oxadiazol-5(4H)-one]	80.9%	12.5 nM	10.8%	38.4 nM	91.6%	5.1 nM	34.3 nM	86.1%	21.1 nM	25.2%	–
CCCCC1=NC2(CCCC2)C(=O)N1Cc1ccc(-c2cc(-c3ccccc3)ccc2-c2nn[nH]n2)cc1 [Example 33]	27.5%	26.7 nM	3.3%	80.8 nM	83.0%	16.5 nM	9.7 nM	29.9%	> 10000 nM	–	–
CCc1nc2c(C)cc(C)nc2n1Cc1ccc(-c2cc(-c3cc(F)cc(F)c3)ccc2-c2nn[nH]n2)cc1 [Example 53]	61.8%	14 nM	5.8%	7.9 nM	90.6%	5.4 nM	2.6 nM	39.4%	> 100000 nM	–	–
CCc1nc2c(C)cc(C)nc2n1Cc1ccc(-c2cc(-c3nccs3)ccc2-c2nn[nH]n2)cc1 [Example 56]	14.2%	54 nM	–	> 100000 nM	63.0%	48.9 nM	58.3 nM	20.8%	42.6 nM	4.0%	–
CCc1nc2c(C)cc(C)nc2n1Cc1ccc(-c2cc(-c3ccsn3)ccc2-c2nn[nH]n2)cc1 [Example 57]	8.9%	19.9 nM	–	> 100000 nM	66.3%	15.2 nM	16.6 nM	26.3%	14.3 nM	5.0%	–
CCc1nc2c(C)cc(C)nc2n1Cc1ccc(-c2cc(-c3ccccc3)ccc2-c2n[nH]c(=S)o2)cc1 [Example 246, 5-(4″-((2-Ethyl-5,7-dimethyl-3H-imidazo[4,5-b]pyridin-3-yl)methyl)-[1,1′:3′,1″-terphenyl]-4′-yl)-1,3,4-oxadiazole-2(3H)-thione]	–	–	4.8%	281 nM	–	–	234 nM	38.3%	82.6 nM	10.1%	916 nM
CCc1nc2c(C)cc(C)nc2n1Cc1ccc(-c2cc(Oc3cccnc3F)ccc2-c2nn[nH]n2)cc1 [Example 262]	–	–	8.6%	37.9 nM	–	–	19.9 nM	50.8%	11.2 nM	14.4%	14.3 nM
